This note sets out measurements from ChEMBL document CHEMBL1201862, “PubChem BioAssay data set” (2004).

Calls of active or inactive are those of the source.

One experiment concerns the target T1, Streptokinase A (Streptococcus pyogenes serotype M1, UniProt P10520).
T1 sequence (P10520 whole entry): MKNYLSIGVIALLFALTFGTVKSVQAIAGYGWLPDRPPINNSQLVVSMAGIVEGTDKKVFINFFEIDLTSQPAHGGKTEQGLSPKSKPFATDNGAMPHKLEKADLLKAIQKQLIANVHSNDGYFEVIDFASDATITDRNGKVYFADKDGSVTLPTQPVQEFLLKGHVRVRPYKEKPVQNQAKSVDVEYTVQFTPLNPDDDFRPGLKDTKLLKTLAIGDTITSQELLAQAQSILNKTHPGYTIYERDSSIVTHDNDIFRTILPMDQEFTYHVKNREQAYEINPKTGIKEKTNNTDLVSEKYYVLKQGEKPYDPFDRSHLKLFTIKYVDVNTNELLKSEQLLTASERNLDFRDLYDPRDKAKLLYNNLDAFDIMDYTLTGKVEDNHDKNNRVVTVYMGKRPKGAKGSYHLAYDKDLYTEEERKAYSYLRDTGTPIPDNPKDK
The experiment can be described thus: S. pyogenes streptokinase expression inhibitors, potency, dose response, plasminogen activation absorbance, OD405 (AID 1914).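 Further: secreted streptokinase activity via plasminogen activation per viability signal from cell pellet.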 In kind it is functional, Streptococcus pyogenes M1 GAS.

Experiment [1] concerns the target T2, Sphingosine 1-phosphate receptor 4 (Homo sapiens, UniProt O95977).
T2 sequence (O95977 whole entry): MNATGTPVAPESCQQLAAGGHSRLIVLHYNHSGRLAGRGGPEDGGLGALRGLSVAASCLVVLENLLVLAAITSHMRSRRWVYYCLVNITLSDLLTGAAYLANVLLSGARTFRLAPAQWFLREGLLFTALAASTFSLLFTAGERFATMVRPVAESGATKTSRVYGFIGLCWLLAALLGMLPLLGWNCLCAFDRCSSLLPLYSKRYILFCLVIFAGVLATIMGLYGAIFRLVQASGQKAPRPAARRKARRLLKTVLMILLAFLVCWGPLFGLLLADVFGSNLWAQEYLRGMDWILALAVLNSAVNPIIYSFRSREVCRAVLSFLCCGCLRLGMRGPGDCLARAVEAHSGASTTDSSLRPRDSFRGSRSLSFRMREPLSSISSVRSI
Nature of the experiment: Fluorescence dose response cell-based high throughput screening assay for antagonists of the Sphingosine 1-Phosphate Receptor 4 (S1P4). [Related pubchem assays: 1524 (Confirmation in triplicates.), 1510 (Primary screen.)]. Type of experiment: functional.

A short description of experiment [2]: inhibitors of firefly luciferase expression or activity, dose response, H4 neuroglioma cells, luminescence (AID 1990). In kind it is functional, cell-based.
A short description of experiment [3]: inhibitors of SNCA 5'UTR-driven translation, confirmation, luminescence, H4 neuroglioblastoma cells, dose confirmation (AID 2454).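 Further: H4 neuroglioblastoma cells carrying an alpha-synuclein 5'UTR luciferase reporter; potency for inhibition of the luciferase signal.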 Type of experiment: functional, cell-based.
Experiment [4] is described as follows: cytotoxicity in HEK-293T cells, dose response, cytotoxicity control for TCR NF-kB inhibitor project, luminescence, T-cell screen hits (AID 489026).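 Further: cells exposed to compound about 14 hours before the viability readout.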 In kind it is functional, cell-based.
For a further experiment, the target named is Troponin, cardiac muscle (Homo sapiens, UniProt P19429+P45379+P63316). Nature of the experiment: inhibitors of cardiac thin filament calcium sensitivity, dose response, biochemical, fluorescence, cardiac regulated thin filaments, triplicate IC50 (AID 504742). Type of experiment: protein-complex assay.
The target of experiment [5] is 1-phosphatidylinositol 4,5-bisphosphate phosphodiesterase gamma-1 (Homo sapiens, UniProt P19174). The experiment can be described thus: Counterscreen for inhibitors of phospholipase C isozymes (PLC-B3): Fluorescence-based biochemical high throughput dose response assay to identify inhibitors of phospholipase C isozymes (PLC-gamma1).
Experiment [6] has as its target T3, Histone-lysine N-methyltransferase NSD2 (Homo sapiens, UniProt O96028).
T3 sequence (O96028 whole entry): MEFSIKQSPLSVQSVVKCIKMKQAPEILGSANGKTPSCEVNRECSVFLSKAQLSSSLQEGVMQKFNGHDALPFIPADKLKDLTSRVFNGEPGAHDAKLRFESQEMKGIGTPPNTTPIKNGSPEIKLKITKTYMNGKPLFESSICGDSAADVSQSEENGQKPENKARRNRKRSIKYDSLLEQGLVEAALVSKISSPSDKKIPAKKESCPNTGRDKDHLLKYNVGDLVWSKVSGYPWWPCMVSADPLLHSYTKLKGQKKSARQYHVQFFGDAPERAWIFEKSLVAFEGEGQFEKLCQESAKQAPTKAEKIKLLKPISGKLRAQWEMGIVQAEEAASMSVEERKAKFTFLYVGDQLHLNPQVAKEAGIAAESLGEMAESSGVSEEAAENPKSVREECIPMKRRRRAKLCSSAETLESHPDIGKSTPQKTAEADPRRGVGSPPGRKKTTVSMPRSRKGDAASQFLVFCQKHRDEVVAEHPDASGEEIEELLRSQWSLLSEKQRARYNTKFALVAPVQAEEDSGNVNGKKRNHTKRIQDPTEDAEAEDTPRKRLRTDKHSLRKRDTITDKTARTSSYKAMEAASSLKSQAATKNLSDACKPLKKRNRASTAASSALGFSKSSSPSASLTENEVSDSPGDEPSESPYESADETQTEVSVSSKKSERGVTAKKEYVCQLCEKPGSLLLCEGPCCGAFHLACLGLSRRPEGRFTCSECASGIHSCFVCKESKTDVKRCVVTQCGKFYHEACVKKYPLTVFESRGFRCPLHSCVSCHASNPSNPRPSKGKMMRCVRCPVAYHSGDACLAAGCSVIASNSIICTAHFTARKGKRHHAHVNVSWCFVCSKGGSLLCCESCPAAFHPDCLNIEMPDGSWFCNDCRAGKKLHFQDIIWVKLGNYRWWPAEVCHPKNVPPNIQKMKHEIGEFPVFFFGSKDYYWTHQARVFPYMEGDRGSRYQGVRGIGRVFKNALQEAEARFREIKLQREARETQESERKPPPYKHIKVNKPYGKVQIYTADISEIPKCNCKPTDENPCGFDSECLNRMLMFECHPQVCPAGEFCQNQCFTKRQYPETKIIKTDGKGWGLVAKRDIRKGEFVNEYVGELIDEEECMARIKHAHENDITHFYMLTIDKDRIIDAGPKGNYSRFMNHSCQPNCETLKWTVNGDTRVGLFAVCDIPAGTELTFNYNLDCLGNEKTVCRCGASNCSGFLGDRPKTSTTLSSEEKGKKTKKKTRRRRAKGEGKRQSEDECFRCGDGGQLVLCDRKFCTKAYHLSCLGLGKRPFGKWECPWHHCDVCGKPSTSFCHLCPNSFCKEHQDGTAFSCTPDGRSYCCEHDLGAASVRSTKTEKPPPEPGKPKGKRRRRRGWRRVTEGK
Type of experiment: biochemical.

The test system of another experiment is HeLa. The experiment can be described thus: HeLa cell cytotoxicity, dose response, cytotoxicity control, 24 h, cherry-picked samples (AID 504726).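 Further: potency for cytotoxicity as loss of luminescence signal.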 Conditions: Homo sapiens. Type of experiment: functional, cell-based.
For another experiment, the target named is Fatty acid synthase (Homo sapiens, UniProt P49327). Nature of the experiment: FAS thioesterase domain inhibitors, dose response, biochemical, endpoint fluorescence intensity, uHTS hits (AID 624327).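 Further: fluorescence from hydrolysis of an O-methyl fluorescein acyl ester substrate by the enzyme.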 Type of experiment: functional.

What is called EC50 is the concentration that produces a half-maximal response. By IC50 is commonly meant the midpoint of a concentration-inhibition curve. The AC50 is the concentration at which the activity in the assay is half-maximal.

1-phosphatidylinositol 4,5-bisphosphate phosphodiesterase gamma-1, sequence (P19174 whole entry): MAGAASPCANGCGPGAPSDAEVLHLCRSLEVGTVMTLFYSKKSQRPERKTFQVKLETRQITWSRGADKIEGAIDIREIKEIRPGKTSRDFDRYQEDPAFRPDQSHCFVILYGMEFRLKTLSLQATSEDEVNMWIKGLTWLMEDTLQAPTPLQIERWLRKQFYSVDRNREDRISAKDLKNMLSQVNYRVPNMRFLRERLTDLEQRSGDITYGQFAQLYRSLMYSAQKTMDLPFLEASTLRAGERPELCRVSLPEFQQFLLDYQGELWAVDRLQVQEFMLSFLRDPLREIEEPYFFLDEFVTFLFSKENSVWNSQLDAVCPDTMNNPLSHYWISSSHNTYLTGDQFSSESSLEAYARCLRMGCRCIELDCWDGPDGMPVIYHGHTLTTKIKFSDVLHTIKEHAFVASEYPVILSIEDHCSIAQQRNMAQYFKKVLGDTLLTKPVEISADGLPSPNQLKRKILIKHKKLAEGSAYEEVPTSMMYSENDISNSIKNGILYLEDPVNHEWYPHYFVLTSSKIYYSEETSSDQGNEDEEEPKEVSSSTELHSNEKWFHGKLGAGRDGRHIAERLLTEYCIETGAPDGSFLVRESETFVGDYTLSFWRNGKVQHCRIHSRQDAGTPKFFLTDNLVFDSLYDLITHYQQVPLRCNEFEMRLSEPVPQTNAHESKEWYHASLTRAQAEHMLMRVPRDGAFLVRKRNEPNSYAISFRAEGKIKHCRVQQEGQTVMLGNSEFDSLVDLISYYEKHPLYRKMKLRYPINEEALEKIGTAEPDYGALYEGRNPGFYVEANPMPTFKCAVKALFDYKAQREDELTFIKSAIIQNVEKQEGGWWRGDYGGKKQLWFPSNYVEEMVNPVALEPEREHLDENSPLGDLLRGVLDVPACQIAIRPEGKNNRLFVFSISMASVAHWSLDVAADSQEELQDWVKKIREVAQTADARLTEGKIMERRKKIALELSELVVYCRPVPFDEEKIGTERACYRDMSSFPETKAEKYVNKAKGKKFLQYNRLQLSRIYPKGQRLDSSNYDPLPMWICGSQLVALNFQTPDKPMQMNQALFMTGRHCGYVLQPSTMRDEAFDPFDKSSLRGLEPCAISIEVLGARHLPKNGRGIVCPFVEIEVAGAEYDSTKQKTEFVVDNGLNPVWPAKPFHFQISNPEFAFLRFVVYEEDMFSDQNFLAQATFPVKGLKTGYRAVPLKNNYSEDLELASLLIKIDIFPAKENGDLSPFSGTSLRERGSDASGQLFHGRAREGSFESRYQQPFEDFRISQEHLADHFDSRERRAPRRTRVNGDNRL
Fatty acid synthase, sequence (P49327 whole entry, the tested form may be a part): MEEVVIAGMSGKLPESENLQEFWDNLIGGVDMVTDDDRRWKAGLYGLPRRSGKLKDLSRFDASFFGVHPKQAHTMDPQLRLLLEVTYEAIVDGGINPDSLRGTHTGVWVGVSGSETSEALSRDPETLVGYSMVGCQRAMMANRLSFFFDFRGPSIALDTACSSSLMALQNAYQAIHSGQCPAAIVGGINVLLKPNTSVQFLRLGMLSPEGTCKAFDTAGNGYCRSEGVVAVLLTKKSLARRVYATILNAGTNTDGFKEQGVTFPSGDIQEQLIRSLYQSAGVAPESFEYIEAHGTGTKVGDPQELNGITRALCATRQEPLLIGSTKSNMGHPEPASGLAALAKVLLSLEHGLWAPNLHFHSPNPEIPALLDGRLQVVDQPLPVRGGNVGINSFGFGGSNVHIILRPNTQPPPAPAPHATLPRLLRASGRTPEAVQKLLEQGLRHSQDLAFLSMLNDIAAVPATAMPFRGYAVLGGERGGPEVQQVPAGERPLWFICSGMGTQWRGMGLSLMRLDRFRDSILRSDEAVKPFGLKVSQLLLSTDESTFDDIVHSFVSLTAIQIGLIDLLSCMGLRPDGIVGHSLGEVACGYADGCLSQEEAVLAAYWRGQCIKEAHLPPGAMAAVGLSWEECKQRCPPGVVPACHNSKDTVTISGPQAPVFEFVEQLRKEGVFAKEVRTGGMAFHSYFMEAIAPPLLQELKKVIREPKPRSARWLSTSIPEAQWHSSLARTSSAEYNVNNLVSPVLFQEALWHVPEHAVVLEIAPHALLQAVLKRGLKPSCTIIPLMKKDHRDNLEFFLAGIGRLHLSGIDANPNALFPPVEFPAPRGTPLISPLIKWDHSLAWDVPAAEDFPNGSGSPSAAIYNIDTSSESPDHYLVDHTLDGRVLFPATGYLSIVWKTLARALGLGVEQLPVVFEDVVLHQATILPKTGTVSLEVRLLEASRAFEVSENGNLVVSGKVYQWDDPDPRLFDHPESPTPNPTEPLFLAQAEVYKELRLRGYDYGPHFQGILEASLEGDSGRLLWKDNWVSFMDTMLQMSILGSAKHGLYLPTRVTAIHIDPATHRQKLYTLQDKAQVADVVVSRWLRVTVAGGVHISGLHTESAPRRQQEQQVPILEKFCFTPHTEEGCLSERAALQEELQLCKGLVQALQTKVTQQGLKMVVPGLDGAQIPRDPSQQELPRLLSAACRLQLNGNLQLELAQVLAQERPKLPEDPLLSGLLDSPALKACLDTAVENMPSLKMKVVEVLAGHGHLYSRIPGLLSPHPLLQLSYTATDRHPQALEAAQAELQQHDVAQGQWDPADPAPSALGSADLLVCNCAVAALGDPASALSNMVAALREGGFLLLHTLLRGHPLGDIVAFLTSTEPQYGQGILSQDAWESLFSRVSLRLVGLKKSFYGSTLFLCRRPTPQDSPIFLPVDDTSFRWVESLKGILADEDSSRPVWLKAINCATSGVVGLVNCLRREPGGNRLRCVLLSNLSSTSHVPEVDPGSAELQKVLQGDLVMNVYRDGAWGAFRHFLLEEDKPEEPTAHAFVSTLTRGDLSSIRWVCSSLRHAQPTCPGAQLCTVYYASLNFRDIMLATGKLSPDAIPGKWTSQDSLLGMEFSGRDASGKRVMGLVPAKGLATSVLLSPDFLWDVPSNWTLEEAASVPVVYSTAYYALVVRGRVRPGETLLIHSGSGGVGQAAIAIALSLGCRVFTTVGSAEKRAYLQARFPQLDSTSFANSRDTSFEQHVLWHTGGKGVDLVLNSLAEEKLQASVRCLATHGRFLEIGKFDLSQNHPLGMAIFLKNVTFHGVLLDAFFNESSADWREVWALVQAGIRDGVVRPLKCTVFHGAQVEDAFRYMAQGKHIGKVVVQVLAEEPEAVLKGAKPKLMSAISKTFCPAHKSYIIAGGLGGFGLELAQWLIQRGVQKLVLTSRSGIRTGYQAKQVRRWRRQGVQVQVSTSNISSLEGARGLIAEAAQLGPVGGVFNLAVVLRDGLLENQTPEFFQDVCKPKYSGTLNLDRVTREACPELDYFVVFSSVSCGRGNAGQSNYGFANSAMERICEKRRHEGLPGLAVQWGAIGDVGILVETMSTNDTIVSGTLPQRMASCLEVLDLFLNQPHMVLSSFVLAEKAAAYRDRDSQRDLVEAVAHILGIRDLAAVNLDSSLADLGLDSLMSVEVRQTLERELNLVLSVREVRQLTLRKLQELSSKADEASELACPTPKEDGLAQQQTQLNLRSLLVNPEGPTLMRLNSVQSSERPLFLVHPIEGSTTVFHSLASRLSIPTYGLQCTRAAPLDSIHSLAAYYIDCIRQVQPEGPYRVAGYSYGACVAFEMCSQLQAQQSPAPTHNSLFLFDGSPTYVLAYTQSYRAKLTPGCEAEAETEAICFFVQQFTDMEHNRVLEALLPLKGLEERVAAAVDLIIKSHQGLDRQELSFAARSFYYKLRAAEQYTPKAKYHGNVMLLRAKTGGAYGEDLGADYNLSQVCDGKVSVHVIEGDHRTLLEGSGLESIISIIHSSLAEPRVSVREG

Take `CCCCCCCCCCOC(=O)C[n+]1c(COc2ccccc2OC)n(C)c2ccccc21`: the EC50 on Streptokinase A is > 150 µM (not active).
Take `Cc1oc2c(c1C(=O)NCc1cccnc1)C(=O)c1ccccc1C2=O`: the IC50 in experiment [1] is 0.581 µM (active); in experiment [4] it was 7.67 µM (active). The figures for the half-maximal effective concentration (EC50) in [2] and in experiment [3] were < 0.1 µM (active) and 0.145 µM (active), respectively.
`O=c1ccc2c(-c3ccccc3S(=O)(=O)O)c3ccc(O)c(O)c3oc-2c1O` [PYROGALLOL RED]: the 50% inhibitory concentration (IC50) was 0.558 µM (active) on Troponin, cardiac muscle; 14.2 µM (inactive) in experiment [5]; 16.2 µM (active) on Fatty acid synthase. For the same compound, the AC50 in [6] is 0.146 µM (active); with HeLa, 8.94 µM (active).
